Data set [1] in a line: Solubility measurement in buffer D-PBS 1X (pH = 7.2). Conditions: for solubility: pH 7.2, aqueous buffer. From the text:
The solvent used is constituted by a buffered solution at pH=7.2 “Dulbecco's Phosphate Buffered Saline” (D-PBS 1X), marketed by Gibco (reference 14190).

The test system of a further data set is line A549 (lung). The data set is described as follows: Cytotoxic activity: inhibition of cell proliferation, ATPLite luminescence of residual ATP after 72 hours. The class given is cell-based, human. Conditions: A549 lung tumoral line, 72 hours of incubation. As for the experimental part: (§1) The cytotoxic activity of the compounds prepared according to the invention was evaluated by measuring inhibition of the cell proliferation of tumoral lines of human origin, such as line A549 (lung) and line HCT 116 (colon). This activity is expressed by IC50, concentration of the tested product capable of inhibiting 50% of cell proliferation. The method used is luminescence measurement of the residual ATP after 72 hours of incubation using the “ATPLite®” kit marketed by Perkin Elmer, as described in the following publication: “Measurement of cytotoxicity by ATP-based luminescence assay in primary cell cultures and cell lines”. I. A. Cree, P. E. Andreotti, Toxicology in Vitro, 11, 553-6, (1997).
(§2) The concentration values are expressed in nanomolar (nM).

The next data set relates to line HCT 116 (colon). The description is as above. The class given is cell-based, human. Conditions: HCT 116 colon tumoral line, 72 hours of incubation, read-out: IC50 (nM) HCT116. As for the experimental part:
as §1, §2

SMILES strings stand for the structures. Where “and” joins values, the source holds several entries; their conditions need not be identical. Equal values may be shown once. Where a name gives a salt, the structure may show the parent alone. Read-outs that look alike come from different tables or passages of the source.

On to `N[C@H]1[C@H](O)[C@@H](O)[C@@H](O)[C@@H]2NC(=O)c3c(cc4c(c3O)OCO4)[C@@H]12` [Compound 6, (1R,2S,3R,4S,4aR,11bS)-1-amino-2,3,4,7-tetrahydroxy-1,2,3,4,4a,5-hexahydro-[1,3]dioxolo[4,5-j]phenanthridin-6(11bH)-one], for which the “Solubility Buffer D-PBS 1X (pH = 7.2), mass by volume unit” value in data set [1] (D-PBS 1X, pH = 7.2) was 508 μg/mL. Besides, the “Solubility Buffer D-PBS 1X (pH = 7.2), molarity” value in data set [1] (D-PBS 1X, pH = 7.2) came out at 1340 μM. In addition, the figures for the IC50 in the data set with line A549 (lung) (Homo sapiens) and in the data set with line HCT 116 (colon) (Homo sapiens) were 60 nM and 35 nM, respectively.

For the compound `O=C1N[C@H]2[C@H](O)[C@H](O)[C@@H](O)[C@H](NC(=O)C3CCCCC3)[C@@H]2c2cc3c(c(O)c21)OCO3` [Compound 21, N-((1R,2S,3R,4S,4aR,11bS)-2,3,4,7-tetrahydroxy-6-oxo-1,2,3,4,4a,5,6,11b-octahydro-[1,3]dioxolo[4,5-j]phenanthridin-1-yl)cyclohexanecarboxamide], the IC50 with line A549 (lung) (Homo sapiens) turned out to be 46 nM; in the data set with line HCT 116 (colon) (Homo sapiens) it was 13 nM.

`[N-]=[N+]=N[C@H]1[C@H](O)[C@@H](O)[C@@H](O)[C@@H]2NC(=O)c3c(cc4c(c3O)OCO4)[C@@H]12` [Compound 5, (1R,2S,3S,4S,4aR,11bR)-1-azido-2,3,4,7-tetrahydroxy-1,2,3,4,4a,5-hexahydro-[1,3]dioxolo[4,5-j]phenanthridin-6(11bH)-one]: the concentration for half-maximal inhibition (IC50) in the data set with line A549 (lung) (Homo sapiens) was determined as 68 nM; in the data set with line HCT 116 (colon) (Homo sapiens), 36 nM.

For `CN(C)Cc1cccc(C(=O)N[C@H]2[C@H](O)[C@@H](O)[C@@H](O)[C@@H]3NC(=O)c4c(cc5c(c4O)OCO5)[C@@H]23)c1` [Compound 28, 3-((dimethylamino)methyl)-N-((1R,2S,3R,4S,4aR,11bS)-2,3,4,7-tetrahydroxy-6-oxo-1,2,3,4,4a,5,6,11b-octahydro-[1,3]dioxolo[4,5-j]phenanthridin-1-yl)benzamide], the figures for the IC50 in the data set with line A549 (lung) (Homo sapiens) and in the data set on line HCT 116 (colon) (Homo sapiens) were 110 nM and 130 nM, respectively.

Turning to `CC(C)(C)OC(=O)N[C@H]1[C@H](O)[C@@H](O)[C@@H](O)[C@@H]2NC(=O)c3c(cc4c(c3O)OCO4)[C@@H]12` [Compound 10, tert-butyl(1R,2S,3S,4S,4aR,11bR)-2,3,4,7-tetrahydroxy-6-oxo-1,2,3,4,4a,5,6,11b-octahydro-[1,3]dioxolo[4,5-j]phenanthridin-1-ylcarbamate], the IC50 in the data set on line A549 (lung) (Homo sapiens) came out at 270 nM; in the data set with line HCT 116 (colon) (Homo sapiens), 32 nM.

Turning to `O=C1N[C@H]2[C@H](O)[C@H](O)[C@@H](O)[C@H](NCc3ccccc3)[C@@H]2c2cc3c(c(O)c21)OCO3` [Compound 14, (1R,2S,3R,4S,4aR,11bS)-1-(benzylamino)-2,3,4,7-tetrahydroxy-1,2,3,4,4a,5-hexahydro-[1,3]dioxolo[4,5-j]phenanthridin-6(11bH)-one], the IC50 with line A549 (lung) (Homo sapiens) is 22 nM; with line HCT 116 (colon) (Homo sapiens), 12 nM.

With `O=C(N[C@H]1[C@H](O)[C@@H](O)[C@@H](O)[C@@H]2NC(=O)c3c(cc4c(c3O)OCO4)[C@@H]12)c1ccccc1` [Compound 22, N-((1R,2S,3R,4S,4aR,11bS)-2,3,4,7-tetrahydroxy-6-oxo-1,2,3,4,4a,5,6,11b-octahydro-[1,3]dioxolo[4,5-j]phenanthridin-1-yl)benzamide], the solubility in data set [1] (Solubility Buffer D-PBS 1X (pH = 7.2), mass by volume unit, D-PBS 1X, pH = 7.2) was 393 µg/mL; in data set [1] (Solubility Buffer D-PBS 1X (pH = 7.2), molarity, D-PBS 1X, pH = 7.2), 867 µM. The IC50 in the data set on line A549 (lung) (Homo sapiens) worked out at 8.7 nM; with line HCT 116 (colon) (Homo sapiens), 4.7 nM.

Turning to `N[C@H]1[C@H](O)[C@@H](O)[C@@H](O)[C@@H]2NC(=O)c3c(cc4c(c3O)OCO4)[C@@H]12` [Hydrochloride of Compound 6, (1R,2S,3R,4S,4aR,11bS)-1-amino-2,3,4,7-tetrahydroxy-1,2,3,4,4a,5-hexahydro-[1,3]dioxolo[4,5-j]phenanthridin-6(11bH)-one], the “Solubility Buffer D-PBS 1X (pH = 7.2), molarity” value in data set [1] (D-PBS 1X, pH = 7.2) was 3870 μM. Further, the “Solubility Buffer D-PBS 1X (pH = 7.2), mass by volume unit” value in data set [1] (D-PBS 1X, pH = 7.2, listed as compound 6 isolated in the hydrochloride form) is listed as 1250 μg/mL.

With `CN(C)[C@H]1[C@H](O)[C@@H](O)[C@@H](O)[C@@H]2NC(=O)c3c(cc4c(c3O)OCO4)[C@H]21` [Compound 16, (1R,2S,3S,4S,4aR,11bR)-1-(dimethylamino)-2,3,4,7-tetrahydroxy-1,2,3,4,4a,5-hexahydro-[1,3]dioxolo[4,5-j]phenanthridin-6(11bH)-one], the half-inhibitory concentration (IC50) amounted to 150 nM in the data set on line A549 (lung) (Homo sapiens) and 81 nM in the data set on line HCT 116 (colon) (Homo sapiens).

With `O=C1N[C@@H]2C(=C[C@H](O)[C@@H](O)[C@H]2O)c2cc3c(c(O)c21)OCO3` [Narciclasine 1, Narciclasine, reference compound], the solubility in data set [1] is 401 µM and 131 µg/mL. Also, the IC50 worked out at 49 nM in the data set on line A549 (lung) and 22 nM in the data set on line HCT 116 (colon).

As usually defined, the IC50 is the concentration at which inhibition is half-maximal. By solubility is commonly meant the concentration that dissolves in the medium under given conditions. High values mean much dissolved substance, low ones little dissolved substance.

For the origin of these results see patent US8697064B2, “Nitrogenated derivatives of pancratistatin” (Pierre Fabre Medicament, priority 2008, dated 2014).
